Where two headings read alike, the source gives them in different places.
Molecular target: T1, GLP-1 Receptor (GLP1R) (Homo sapiens, UniProt P43220)
T1 construct: host or cells: HEK293/GLP1R/CRE-LUC
Experiment: GLP-1R agonist cAMP stimulation assay (Method 3)
Type: cell-based
Conditions: HEK293/GLP1R/CRE-LUC cells (HDB), Method 3, 30 min incubation
Method: Method 3: Activation of GLP-1 receptor is known to stimulate cyclic AMP (cAMP) production in cells which indicates primary coupling to the Gαs subunit of the G protein heterotrimeric complex.
To optimize functional activity directed toward Gαs coupling, a HEK293/CRE-Luc cell line developed by HDB stably expressing the GLP-1 Receptor was used, 200× concentration of compound working solutions were prepared (Agilent Technologies Bravo) with 1/2 log serial dilution in 384-well Echo LDV plate (Labcyte, Cat #LP-0200). 50 nL/well 200× concentration of compound working solutions were moved to 384-well white low volume plate (Greiner, Cat #784075) using Labcyte ECHO550. 1×10^5 cells/mL HEK293/GLP1R/CRE-LUC(HD Biosciences) cell suspensions prepared with assay buffer [DPBS containing 0.5 mM IBMX (Sigma, Cat #15879) and 0.1% BSA (GENVIEW, Cat #FA016-100 g)], 10 μL cell suspensions were added to each well of previous generated assay plate which already contains 50 nL compound at 200× concentration using ThermoFisher Multidrop Combi (1000 cells/well). Seal the plate and incubate at 37° C. with 5% CO2 for 30 min.
After incubation the cAMP assay signal was generated using cAMP dynamic 2 Kit (Cisbio). 5 μL cAMP-d2 working solution was added to each well, followed with 5 μL Anti-cAMP antibody-cryptate working solution added to each well using ThermoFisher Multidrop Combi. Incubate at room temperature for 1 hour protected from light. Read the fluorescence at 665 nm and 615 nm with Reader PerkinElmer EnVision.

[1] = read-out: GLP1R cAMP Stimulation DR: EC50 (nM) [Species: Human, Assay Cell Line: HDB]
[2] = read-out: GLP1R cAMP Stimulation DR: pEC50 (M) [Species: Human, Assay Cell Line: HDB] (converted)

T1 sequence (P43220 24-463): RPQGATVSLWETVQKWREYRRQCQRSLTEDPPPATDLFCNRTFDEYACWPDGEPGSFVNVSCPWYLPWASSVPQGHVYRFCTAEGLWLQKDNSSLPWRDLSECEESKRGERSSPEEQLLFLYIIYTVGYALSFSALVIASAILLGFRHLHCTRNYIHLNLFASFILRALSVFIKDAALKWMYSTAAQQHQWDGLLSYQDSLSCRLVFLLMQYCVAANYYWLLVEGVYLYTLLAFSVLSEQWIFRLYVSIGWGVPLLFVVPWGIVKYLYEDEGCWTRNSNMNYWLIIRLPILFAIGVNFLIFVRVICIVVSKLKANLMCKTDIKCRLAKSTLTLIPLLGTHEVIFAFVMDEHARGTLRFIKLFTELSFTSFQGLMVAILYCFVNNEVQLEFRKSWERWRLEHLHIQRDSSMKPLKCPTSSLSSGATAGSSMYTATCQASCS

Row | Compound | EC50 [1] [nM] | EC50 [2] [nM]
1 | Cc1cc(-n2nc3c(c2-n2ccn(-c4ccc(P(C)(C)=O)cc4)c2=O)[C@H](C)N(C(=O)c2cc4cc(C5CCOCC5)ccc4n2[C@@]2(c4noc(=O)[nH]4)C[C@@H]2C)CC3)cc(C)c1F [Compound 101a, 3-((1S,2S)-1-(2-((S)-3-(3-(4-(Dimethylphosphoryl)phenyl)-2-oxo-2,3-dihydro-1H-imidazol-1-yl)-2-(4-fluoro-3,5-dimethylphenyl)-4-methyl-4,5,6,7-tetrahydro-2H-pyrazolo[4,3-c]pyridine-5-carbonyl)-5-(tetrahydro-2H-pyran-4-yl)-1H-indol-1-yl)-2-methylcyclopropyl)-1,2,4-oxadiazol-5(4H)-one] | 0.1 to 0.2 | 0.1 to 1
2 | Cc1cc(-n2nc3c(c2-n2ccn(-c4ccc(P(C)(C)=O)nc4)c2=O)[C@H](C)N(C(=O)c2cc4cc(C5CCOCC5)ccc4n2[C@@]2(c4noc(=O)[nH]4)C[C@@H]2C)CC3)cc(C)c1F [Compound 105a, 3-((1S,2S)-1-(2-((S)-3-(3-(6-(dimethylphosphoryl)pyridin-3-yl)-2-oxo-2,3-dihydro-1H-imidazol-1-yl)-2-(4-fluoro-3,5-dimethylphenyl)-4-methyl-4,5,6,7-tetrahydro-2H-pyrazolo[4,3-c]pyridine-5-carbonyl)-5-(tetrahydro-2H-pyran-4-yl)-1H-indol-1-yl)-2-methylcyclopropyl)-1,2,4-oxadiazol-5(4H)-one] | 0.1 to 0.2 | 0.1 to 1
3 | CNc1cc(-n2ccn(-c3c4c(nn3-c3cc(C)c(F)c(C)c3)CCN(C(=O)c3cc5cc(C6CCOCC6)ccc5n3[C@@]3(c5noc(=O)[nH]5)C[C@@H]3C)[C@H]4C)c2=O)ccc1P(C)(C)=O [Compound 106a, 3-((1S,2S)-1-(2-((S)-3-(3-(4-(dimethylphosphoryl)-3-(methylamino)phenyl)-2-oxo-2,3-dihydro-1H-imidazol-1-yl)-2-(4-fluoro-3,5-dimethylphenyl)-4-methyl-4,5,6,7-tetrahydro-2H-pyrazolo[4,3-c]pyridine-5-carbonyl)-5-(tetrahydro-2H-pyran-4-yl)-1H-indol-1-yl)-2-methylcyclopropyl)-1,2,4-oxadiazol-5(4H)-one] | < 0.1 | ≤ 0.1
4 | Cc1cc(-n2nc3c(c2-n2ccn(-c4cccc(P(C)(C)=O)c4O)c2=O)[C@H](C)N(C(=O)c2cc4cc(C5CCOCC5)ccc4n2[C@@]2(c4noc(=O)[nH]4)C[C@@H]2C)CC3)cc(C)c1F [Compound 107a, 3-((1S,2S)-1-(2-((S)-3-(3-(3-(dimethylphosphoryl)-2-hydroxyphenyl)-2-oxo-2,3-dihydro-1H-imidazol-1-yl)-2-(4-fluoro-3,5-dimethylphenyl)-4-methyl-4,5,6,7-tetrahydro-2H-pyrazolo[4,3-c]pyridine-5-carbonyl)-5-(tetrahydro-2H-pyran-4-yl)-1H-indol-1-yl)-2-methylcyclopropyl)-1,2,4-oxadiazol-5(4H)-one] | 0.2 to 0.5 | 0.1 to 1
5 | Cc1cc(-n2nc3c(c2-n2ccn(-c4ccc(P(C)(C)=O)c(F)c4)c2=O)[C@H](C)N(C(=O)c2cc4cc(C5CCOCC5)ccc4n2[C@@]2(c4noc(=O)[nH]4)C[C@@H]2C)CC3)cc(C)c1F [Compound 108a, 3-((1S,2S)-1-(2-((S)-3-(3-(4-(dimethylphosphoryl)-3-fluorophenyl)-2-oxo-2,3-dihydro-1H-imidazol-1-yl)-2-(4-fluoro-3,5-dimethylphenyl)-4-methyl-4,5,6,7-tetrahydro-2H-pyrazolo[4,3-c]pyridine-5-carbonyl)-5-(tetrahydro-2H-pyran-4-yl)-1H-indol-1-yl)-2-methylcyclopropyl)-1,2,4-oxadiazol-5(4H)-one] | 0.2 to 0.5 | 0.1 to 1
6 | Cc1cc(-n2nc3c(c2-n2ccn(-c4cccc(P(C)(C)=O)c4)c2=O)[C@H](C)N(C(=O)c2cc4cc(C5CCOCC5)ccc4n2[C@@]2(c4noc(=O)[nH]4)C[C@@H]2C)CC3)cc(C)c1F [Compound 109a, 3-((1S,2S)-1-(2-((S)-3-(3-(3-(dimethylphosphoryl)phenyl)-2-oxo-2,3-dihydro-1H-imidazol-1-yl)-2-(4-fluoro-3,5-dimethylphenyl)-4-methyl-4,5,6,7-tetrahydro-2H-pyrazolo[4,3-c]pyridine-5-carbonyl)-5-(tetrahydro-2H-pyran-4-yl)-1H-indol-1-yl)-2-methylcyclopropyl)-1,2,4-oxadiazol-5(4H)-one] | 0.1 to 0.2 | 0.1 to 1
7 | Cc1cc(-n2nc3c(c2-n2ccn(-c4cc(P(C)(C)=O)c5[nH]cnc5c4)c2=O)[C@H](C)N(C(=O)c2cc4cc(C5CCOCC5)ccc4n2[C@@]2(c4noc(=O)[nH]4)C[C@@H]2C)CC3)cc(C)c1F [Compound 110a, 3-((1S,2S)-1-(2-((S)-3-(3-(7-(dimethylphosphoryl)-1H-benzo[d]imidazol-5-yl)-2-oxo-2,3-dihydro-1H-imidazol-1-yl)-2-(4-fluoro-3,5-dimethylphenyl)-4-methyl-4,5,6,7-tetrahydro-2H-pyrazolo[4,3-c]pyridine-5-carbonyl)-5-(tetrahydro-2H-pyran-4-yl)-1H-indol-1-yl)-2-methylcyclopropyl)-1,2,4-oxadiazol-5(4H)-one] | 0.5 to 5 | 0.1 to 1
8 | Cc1cc(-n2nc3c(c2-n2ccn(-c4ccc(P(C)(C)=O)c(N)c4)c2=O)[C@H](C)N(C(=O)c2cc4cc(C5CCOCC5)ccc4n2[C@@]2(c4noc(=O)[nH]4)C[C@@H]2C)CC3)cc(C)c1F [Compound 111a, 3-((1S,2S)-1-(2-((S)-3-(3-(3-amino-4-(dimethylphosphoryl)phenyl)-2-oxo-2,3-dihydro-1H-imidazol-1-yl)-2-(4-fluoro-3,5-dimethylphenyl)-4-methyl-4,5,6,7-tetrahydro-2H-pyrazolo[4,3-c]pyridine-5-carbonyl)-5-(tetrahydro-2H-pyran-4-yl)-1H-indol-1-yl)-2-methylcyclopropyl)-1,2,4-oxadiazol-5(4H)-one] | < 0.1 | ≤ 0.1
9 | Cc1cc(-n2nc3c(c2-n2ccn(-c4cc(P(C)(C)=O)c5c(cnn5C)c4)c2=O)[C@H](C)N(C(=O)c2cc4cc(C5CCOCC5)ccc4n2[C@@]2(c4noc(=O)[nH]4)C[C@@H]2C)CC3)cc(C)c1F [Compound 112a, 3-((1S,2S)-1-(2-((S)-3-(3-(7-(dimethylphosphoryl)-1-methyl-1H-indazol-5-yl)-2-oxo-2,3-dihydro-1H-imidazol-1-yl)-2-(4-fluoro-3,5-dimethylphenyl)-4-methyl-4,5,6,7-tetrahydro-2H-pyrazolo[4,3-c]pyridine-5-carbonyl)-5-(tetrahydro-2H-pyran-4-yl)-1H-indol-1-yl)-2-methylcyclopropyl)-1,2,4-oxadiazol-5(4H)-one] | 0.5 to 5 | 0.1 to 1
10 | Cc1cc(-n2nc3c(c2-n2ccn(-c4cccc(P(C)(C)=O)n4)c2=O)[C@H](C)N(C(=O)c2cc4cc(C5CCOCC5)ccc4n2[C@@]2(c4noc(=O)[nH]4)C[C@@H]2C)CC3)cc(C)c1F [Compound 113a, 3-((1S,2S)-1-(2-((S)-3-(3-(6-(dimethylphosphoryl)pyridin-2-yl)-2-oxo-2,3-dihydro-1H-imidazol-1-yl)-2-(4-fluoro-3,5-dimethylphenyl)-4-methyl-4,5,6,7-tetrahydro-2H-pyrazolo[4,3-c]pyridine-5-carbonyl)-5-(tetrahydro-2H-pyran-4-yl)-1H-indol-1-yl)-2-methylcyclopropyl)-1,2,4-oxadiazol-5(4H)-one] | 0.2 to 0.5 | 0.1 to 1

— patent US20240366639A1, “HETEROCYCLIC GLP-1 AGONISTS” (GASHERBRUM BIO, INC., priority 2021, published 2024)
